Literature values, collected in US20010036486A1, “Method for treating nicotine addiction and deterring tobacco use with hypericum perforatum” (priority 2000, published 2001).

Conditions: small study; Edward et al. 1989

CN(C)CCC=C1c2ccccc2COc2ccccc21 [doxepin]
help for smoking cessation: showed some promise for helping smoking cessation
